This passage reports IC50 and percent dimer results from paper PMC5557545 (PLoS ONE, 2017).

pIC50: −log10 of the molar value.

The test system of test [1] is endonuclease from detergent disrupted viral particles. The arrangement: method as in PMID 7695269. Particulars: cited from earlier work.
Test [2] concerns the target influenza A polymerase acidic protein (PA), full length, N-terminal 3x FLAG tag (influenza A virus H1N1 strain A/PR/8) (UniProt P03433). Nature of the test: AUC.
Test [3] has as its system influenza virus transcription. The conditions noted are these: cited from earlier work.

Usually pIC50 stands for −log10 of the IC50, conventionally taken in molar units.

Regarding `O=C(O)C(=O)CC(=O)c1ccc(-c2ccccc2)cc1` [Compound A, 4-([1,1'-biphenyl]-4-yl)-2,4-dioxobutanoic acid], in test [1], the pIC50 was 5.43.
In the case of “influenza A polymerase acidic protein (PA), full length, N-terminal 3x FLAG tag (from UniProt P03433 1-716) (natural protein)”, the percent dimer in test [2] was 10%.
Take `O=C(O)C(=O)CC(=O)C1(Cc2ccc(Cl)cc2)CCN(Cc2ccc(Cl)cc2)CC1` [Compound B, 4-(1,4-bis(4-chlorobenzyl)piperidin-4-yl)-2,4-dioxobutanoic acid]: the pIC50 in test [3] was 5.96.
